# Experimental data as given in patent US20030045480A1, “Method of treating hyperresorptive bone disorders” (priority 2001, published 2003).
# Target: Src Kinase (p60c-Src) (Homo sapiens, UniProt P12931)
# Experiment: General Assay Method for Src-Kinase (DELFIA time-resolved fluorometry, poly(Glu,Tyr) substrate)
# Type: biochemical
# Details: Src kinase 1:8000, 100 μM ATP, 15 min. at room temp; read-out: Activity (uMol. Delfia assay. IC50)
# Protocol: The compounds 1-25 above were assayed for activity with respect to the Src protein tyrosine kinase by the fluorometric method described in Measurement of the Protein Tyrosine Kinase Activity of c-Src Using Time-Resolved Fluorometry of Europium Chelates, Braunwalder, A. F. et al., Analytical Biochemistry 238, 159-164 (1996), the disclosure of which is incorporated herein by reference, using the materials and procedures further specified below.
# General Assay Method for Src-Kinase:
# Costar 384 Clear, non-treated, high-binding plates
# Sigma poly(Glu, Tyr) 4:1, Ave. MW 35,000
# Sigma ATP (1.5 mM Stock Soln. in H2O)
# MES Buffer: 30 mM MES (pH 6.8)
# MBI Buffer: (MES+0.4 mg/ml BSA+0.003% IGEPAL)
# Wallac Eu-labelled anti-phosphotyrosine Antibody (CR04-100)
# Antibody Dilution Buffer: (MES+3%BSA)
# DELFIA® Wash Solution (TTBS):
# DELFIA Enhancement Solution
# The plates were coated with 0.1 mg/ml poly(Glu, Tyr) in Coating Solution, 35 μl/well. It was let stand overnight at room temp. The plates were then washed 3 times with MES (100 μl/wash).
# The reaction was stopped by aspiration, and then washed 3 times with MES (100 μl/wash). 20 μl 0.4 ng/μl of antibody in Antibody Dilution Buffer (final=8 ng Ab/well) was added and then incubated for 30 min. at RT. The antibody solution was removed by aspiration and then washed 3 times with 1X DELFIA Wash Solution. 20 μl DELFIA Enhancement Solution was added and the value was read.
# Sequence of Src Kinase (p60c-Src) (P12931 whole entry): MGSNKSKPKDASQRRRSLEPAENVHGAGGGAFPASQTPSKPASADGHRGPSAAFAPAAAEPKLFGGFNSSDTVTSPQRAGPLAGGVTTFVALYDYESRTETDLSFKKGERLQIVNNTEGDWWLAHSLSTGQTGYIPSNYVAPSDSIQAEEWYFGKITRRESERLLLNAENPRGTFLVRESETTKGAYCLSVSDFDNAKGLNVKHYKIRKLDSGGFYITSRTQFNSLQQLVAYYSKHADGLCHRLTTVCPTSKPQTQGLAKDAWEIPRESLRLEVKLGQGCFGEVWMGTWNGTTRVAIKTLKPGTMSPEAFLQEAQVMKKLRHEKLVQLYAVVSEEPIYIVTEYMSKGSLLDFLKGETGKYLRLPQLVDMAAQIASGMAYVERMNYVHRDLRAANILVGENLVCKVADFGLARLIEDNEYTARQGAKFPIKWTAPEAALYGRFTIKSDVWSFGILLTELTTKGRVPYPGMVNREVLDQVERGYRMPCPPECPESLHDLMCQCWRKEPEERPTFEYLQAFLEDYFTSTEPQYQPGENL
row,IC50 [µM],SMILES
1,22,"N=C(N)c1ccc(C(=O)N(Cc2cccc(Oc3ccccc3)c2)C(Cc2ccc(-c3ccccc3)cc2)C(=O)NCC(N)=O)cc1 (stereo not shown) [Example 1, N-[4-Amidinobenzoyl]-N-[3-phenoxybenzyl]-3-(4-biphenyl)-alanyl-glycyl-amide]"
2,23,"CC(C)(C)c1ccc(Oc2cccc(CN(C(=O)c3cccc(C(=N)N)c3)C(CC3CCCCC3)C(=O)NCC(N)=O)c2)cc1 (stereo not shown) [Example 2, 3-amidinobenzoyl-(3-(4-tert-butylphenoxy)benzyl)-cyclohexylylalanyl-glycyl-amide]"
3,45,"CC(C)(C)c1ccc(Oc2cccc(CN(C(=O)c3cccc(C(=N)N)c3)C(Cc3ccc(N)cc3)C(=O)NCC(N)=O)c2)cc1 (stereo not shown) [Example 3, N-[3-Amidinobenzoyl]-N-[3-(4-tert-butylphenoxy)benzyl]-4-aminophenylalanyl-glycyl-amide]"
4,18,"CC(C)(C)c1ccc(Oc2cccc(CN(C(=O)c3cccc(C(=N)N)c3)C(Cc3cccc4ccccc34)C(=O)NCC(N)=O)c2)cc1 (stereo not shown) [Example 4, N-[3-Amidinobenzoyl]-N-[3-(4-tert-butylphenoxy)benzyl]-1-naphthylalanyl-glycyl-amide]"
5,12.5,"CC(C)(C)c1ccc(Oc2cccc(CN(C(=O)c3cccc(C(=N)N)c3)C(CCCNC(=N)N)C(=O)NCC(N)=O)c2)cc1 (stereo not shown) [Example 5, N-[3-Amidinobenzoyl]-N-[3-(4-tert-butylphenoxy)benzyl]-arginyl-glycyl-amide]"
6,14,"CC(C)(C)c1ccc(Oc2cccc(CN(C(=O)c3ccc(C(=N)N)cc3)C(Cc3c[nH]c4ccccc34)C(=O)NCC(N)=O)c2)cc1 (stereo not shown) [Example 6, 4-amidinobenzoyl-(3-(4-tert-butylphenoxy)phenoxybenzyl)-tryptanyl-glycyl-amide]"
7,13,"N=C(N)c1ccc(C(=O)N(Cc2ccc(-c3ccccc3)cc2)C(Cc2ccc(-c3ccccc3)cc2)C(=O)NCC(N)=O)cc1 (stereo not shown) [Example 7, N-[4-Amidinobenzoyl]-N-[4-biphenylmethyl]-3-(4-biphenyl)alanyl-glycyl-amide]"
8,8.5,"NC(=O)C(Cc1ccc2ccccc2c1)NC(=O)Nc1ccc(N2CCN(C3CCCCC3)CC2)c(NC(=O)CCCc2ccccc2)c1 (stereo not shown) [Example 8, 4-Cyclohexyl-1-{[2-(4-phenylbutanoyl)amino]-4-[1-aminocarbonyl-2-(2-naphthyl)ethylamino]carbonylaminophenyl}piperazine]"
9,17,"NC(=O)C(Cc1ccc2ccccc2c1)NC(=O)Nc1ccc(N2CCN(C3CCCCC3)CC2)c(NC(=O)/C=C/c2ccccc2)c1 (stereo not shown) [Example 9, 4-Cyclohexyl-1-{[2-cinnamoylamino]-4-[1-aminocarbonyl-2-(2-naphthyl)ethylamino]carbonylaminophenyl}piperazine]"
10,15.5,"NC(=O)C(CCc1ccccc1)NC(=O)Nc1ccc(N2CCN(C3CCCCC3)CC2)c(NC(=O)/C=C/c2ccccc2)c1 (stereo not shown) [Example 10, 4-Cyclohexyl-1-{[2-cinnamoylamino]-4-[(1-aminocarbonyl-3-phenyl)propylamino]carbonylaminophenyl}piperazine]"
11,11,"NC(=O)C(CCc1ccccc1)NC(=O)Nc1ccc(N2CCN(C3CCCCC3)CC2)c(NC(=O)CCCc2ccccc2)c1 (stereo not shown) [Example 11, 4-Cyclohexyl-1-{[2-(4-phenylbutanoyl)amino]-4-[(1-aminocarbonyl-3-phenyl)propylamino]carbonylaminophenyl}piperazine]"
12,18.5,"NC(=O)C(CC1CCCCC1)NC(=O)Nc1ccc(N2CCN(C3CCCCC3)CC2)c(NC(=O)/C=C/c2ccccc2)c1 (stereo not shown) [Example 12, 4-Cyclohexyl-1-{[2-cinnamoylamino]-4-[(1-aminocarbonyl-2-cyclohexyl)ethylamino]carbonylaminophenyl}piperazine]"
13,13,"NC(=O)C(Cc1ccc2ccccc2c1)NC(=O)Nc1ccc(N2CCCN(C(=O)C3CCNCC3)CC2)c(NC(=O)CCCc2ccccc2)c1 (stereo not shown) [Example 13, 4-(Piperidin-4-yl)carbonyl-1-{[2-(4-phenylbutanoyl)amino]-4-[1-aminocarbonyl-2-(2-naphthyl)ethylamino]carbonylaminophenyl}homopiperazine]"
14,2.75,"NC(=O)C(Cc1ccc2ccccc2c1)NC(=O)Nc1ccc(N2CCCN(C(=O)C3CCNCC3)CC2)c(NC(=O)c2cc3ccccc3o2)c1 (stereo not shown) [Example 14, 4-(Piperidin-4-yl)carbonyl-1-{[2-(2-benzofuranoyl)amino]-4-[1-aminocarbonyl-2-(2-naphthyl)ethylamino]carbonylaminophenyl}homopiperazine]"
15,6.5,"NC(=O)C(CC1CCCCC1)NC(=O)Nc1ccc(N2CCCN(C(=O)C3CCNCC3)CC2)c(NC(=O)c2cc3ccccc3o2)c1 (stereo not shown) [Example 15, 4-(Piperidin-4-yl)carbonyl-1-{[2-(2-benzofuranoyl)amino]-4-[1-aminocarbonyl-2-cyclohexylethylamino]carbonylaminophenyl}homopiperazine]"
16,36,NC(=O)C1CCC(CNC(=O)Nc2ccc(N3CCCN(C(=O)C4CCNCC4)CC3)c(NC(=O)c3cc4ccccc4o3)c2)CC1 (stereo not shown) [Example 16]
17,37,CNCC(=O)N1CCCN(c2ccc(NC(=O)NCC3CCC(C(N)=O)CC3)cc2NC(=O)c2cc3ccccc3o2)CC1 (stereo not shown) [Example 17]
18,19,"NC(=O)C1CCC(CNC(=O)Nc2ccc(N3CCCN(C(=O)C4CCCN4)CC3)c(NC(=O)c3cc4ccccc4o3)c2)CC1 (stereo not shown) [Example 18, 4-(Pyrrolidin-2-yl)carbonyl-1-[2-[(2-benzo-furanoyl)amino]-4-[[(4-aminocarbonyl)cyclohexyl-methyl-amino]carbonylamino]phenyl] homopiperazine]"
19,22,NC(=O)C1CCC(CNC(=O)Nc2ccc(N3CCC(N4CCCCC4)CC3)c(NC(=O)c3cc4ccccc4o3)c2)CC1 (stereo not shown) [Example 19]
20,28,NC(=O)C(CC1CCCCC1)NC(=O)Nc1ccc(N2CCCN(C(=O)C3CCNCC3)CC2)c(NC(=O)CCCc2ccccc2)c1 (stereo not shown) [Example 20]
21,22,NC(=O)C(CCc1ccccc1)NC(=O)Nc1ccc(N2CCCN(C(=O)C3CCNCC3)CC2)c(NC(=O)CCCc2ccccc2)c1 (stereo not shown) [Example 21]
22,14,"CC(C)C(NS(=O)(=O)c1cc(NC(=O)C2CCCN2)ccc1N1CCC(Cc2ccccc2)CC1)C(N)=O (stereo not shown) [Example 22, N-(1-Aminocarbonyl-2-methylpropyl)-2-[(4-phenylmethyl)piperidin-1-yl]-5-[(2-pyrrolidinocarbonyl)amino]phenylsulfonamide]"
23,12,CC(C)C(NS(=O)(=O)c1cc(NC(=O)C2CCNCC2)ccc1N1CCC(Cc2ccccc2)CC1)C(N)=O (stereo not shown) [Example 23]
24,42,"CC(C)C(NS(=O)(=O)c1cc(NC(=O)/C=C/c2ccccc2)ccc1N1CCN(C2CCCCC2)CC1)C(N)=O (stereo not shown) [Example 24, 1-[2-[N-(2-Aminocarbonyl-3-methylbutyl)sulfonamido]-5-[2-cinnamoylamino]]phenyl-4-cyclohexylpiperazine]"
25,27.5,"NC(=O)C1CCC(CNS(=O)(=O)c2cc(NC(=O)C3CCCN3)ccc2N2CCC(Cc3ccccc3)CC2)CC1 (stereo not shown) [Example 25, N-[[(4-Aminocarbonyl)cyclohexylmethyl]amino]-[2-[(4-phenylmethyl)piperidin-1-yl]-5-[(2-pyrrolidinocarbonyl)-amino]phenyl]sulfonamide]"
